Results published in PubChem BioAssay AID1346 (Sanford-Burnham Center for Chemical Genomics, 2008).
Calls of active or inactive are those of the source.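 How the source made its calls: active means compounds whose cell survival under thapsigargin stays above the level of untreated control cells; inactive means the rest, which was every compound here.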

System: PC12 rat cells, thapsigargin death, ATPlite luminescence, 24 h
Experiment: ER stress death rescue in rat PC12 cells – cell-based, undifferentiated PC12, rat pheochromocytoma, ATP luminescence, SAR follow-up (AID 1346)
Settings: at 25 µM, stronger effect = higher value
[1] = measured here: survival at 0.25 uM thapsigargin
[2] = measured here: survival at 1 uM thapsigargin

Structure (SMILES)	survival	survival [1]	survival [2]
COc1ccc(C2CC(=O)C3=C(C2)Nc2ccccc2NC3c2cccc(Br)c2)cc1OC (stereo not drawn)	31% (inactive)	25%	21%
CCOc1cc(C2Nc3ccccc3NC3=C2C(=O)CC(c2ccc(OC)cc2)C3)cc(Cl)c1O (stereo not drawn)	26% (inactive)	38%	35%
COc1ccc(C2CC(=O)C3=C(C2)Nc2ccccc2NC3c2cc(C)ccc2C)cc1 (stereo not drawn)	25% (inactive)	27%	26%
COc1ccc(C2CC(=O)C3=C(C2)Nc2ccccc2NC3c2ccccc2C(F)(F)F)cc1OC (stereo not drawn)	30% (inactive)	26%	24%
O=C1CC(c2ccccc2)CC2=C1C(c1c(F)cccc1Cl)Nc1ccccc1N2 (stereo not drawn)	22% (inactive)	34%	24%
CSc1ccc(C2Nc3ccccc3NC3=C2C(=O)CC(c2ccccc2)C3)cc1 (stereo not drawn)	31% (inactive)	23%	19%
COc1ccc(C2CC(=O)C3=C(C2)Nc2ccccc2NC3c2cccc(Oc3ccccc3)c2)cc1OC (stereo not drawn)	49% (inactive)	29%	28%
CCOc1cccc(C2Nc3ccccc3NC3=C2C(=O)CC(c2ccc(OC)cc2)C3)c1 (stereo not drawn)	30% (inactive)	18%	14%
CCCOc1ccc(C2Nc3ccccc3NC3=C2C(=O)CC(c2ccc(OC)c(OC)c2)C3)cc1 (stereo not drawn)	25% (inactive)	28%	26%
CC1(C)CC(=O)C2=C(C1)Nc1ccccc1NC2c1ccc(-c2ccccc2)cc1 (stereo not drawn)	37% (inactive)	33%	29%
COc1ccc(C2CC(=O)C3=C(C2)Nc2ccccc2NC3c2cccc(C(F)(F)F)c2)cc1OC (stereo not drawn)	26% (inactive)	25%	23%
